Assay [1] has as its target NDM-1 (Klebsiella pneumoniae, UniProt C7C422). The assay is described as follows: Inhibitory activity on MBL, fluorescent substrate FC-5. It is filed as biochemical.
For assay [2], the target named is VIM-2 (Escherichia coli, UniProt Q5U7L7). The assay is described as above. The format is biochemical.
Assay [3] deals with IMP-1 (Serratia marcescens, UniProt P52699). The description is as above. The format is biochemical.
For assay [4], the target named is AmpC (UniProt P24735). The assay is described as follows: Inhibitory activity on SBL, fluorescent substrate FC-5.
Assay [5] has as its target OXA-48 (Klebsiella pneumoniae, UniProt Q6XEC0). Described as above. It is filed as biochemical. The following applies: for inhibitory activity on OXA-48 compared to avibactam: comparison in words.
For assay [6], the target named is KPC-2 (Klebsiella pneumoniae, UniProt Q9F663). The description is as above. It is filed as biochemical. The following applies: for inhibitory activity on KPC-2 compared to avibactam: comparison in words.
Assay [7] deals with CTX-M-14 (Escherichia coli, UniProt Q9L5C7). The assay is described as above. The format is biochemical. The settings on record: for inhibitory activity on CTX-M-14 compared to avibactam: comparison in words.
Assay [8] deals with VIM-1 (Pseudomonas aeruginosa, UniProt A0A0F7KYQ8). Kind of assay: Inhibitory activity on MBL, fluorescent substrate FC-5. It is filed as biochemical.
Assay [9] has as its target T1, SHV-12 (UniProt P0AD64, L31Q/G234S/E235K, species not given).
T1 sequence (P0AD64 1-286 L31Q/G234S/E235K): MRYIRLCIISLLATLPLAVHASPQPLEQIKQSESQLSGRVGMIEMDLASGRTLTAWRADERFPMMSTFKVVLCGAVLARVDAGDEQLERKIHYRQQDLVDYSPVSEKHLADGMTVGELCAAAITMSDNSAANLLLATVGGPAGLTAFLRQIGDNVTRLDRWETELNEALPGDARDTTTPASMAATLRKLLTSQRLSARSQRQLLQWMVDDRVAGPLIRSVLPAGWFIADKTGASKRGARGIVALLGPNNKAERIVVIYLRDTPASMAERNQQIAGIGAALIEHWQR
Kind of assay: Inhibitory activity on SBL, fluorescent substrate FC-5. The format is biochemical. The following applies: for inhibitory activity on SHV-12 compared to control drugs: comparison in words.

Assay [10] has as its target NDM-5 (Klebsiella pneumoniae, UniProt C7C422, M154L/V88L). The assay is described as follows: Inhibitory activity on MBL, fluorescent substrate FC-5. It is filed as biochemical.
The target in assay [11] is TEM-1 (Escherichia coli, UniProt P62593). The assay is described as follows: Inhibitory activity on SBL, fluorescent substrate FC-5. The format is biochemical. The settings on record: for inhibitory activity on TEM-1 compared to avibactam: comparison in words; for IC50: read-out: Inhibitory activity on SBL TEM-1 (IC50 class).
For assay [12], the system named is Escherichia coli expressing IMP-1. Kind of assay: Antibacterial activity in combination with meropenem (MIC), clinically isolated strains. The format is cell-based. The following applies: clinical isolate EC1541 (blaIMP-1), compound final concentration 10 μM.
In assay [13] the test system is Klebsiella pneumoniae expressing KPC-2. The assay is described as above. The following applies: compound final concentration 10 μM.
[14] abbreviates: read-out: Inhibitory activity on MBL NDM-1 (IC50 class).
The mark [15] stands for this setting: read-out: Inhibitory activity on MBL VIM-2 (IC50 class).
The mark [16] stands for this setting: read-out: Inhibitory activity on MBL IMP-1 (IC50 class).
[17] abbreviates: read-out: Inhibitory activity on SBL AmpC (IC50 class).
Setting [18] is: read-out: Inhibitory activity on SBL OXA-48 (IC50 class).
Setting [19] is: read-out: Inhibitory activity on SBL KPC-2 (IC50 class).
[20] abbreviates: read-out: Inhibitory activity on SBL CTX-M-14 (IC50 class).
Setting [21] is: read-out: Inhibitory activity on MBL VIM-1 (IC50 class).
Where [22] appears, read: read-out: Inhibitory activity on SBL SHV-12 (IC50 class).
Where [23] appears, read: read-out: Inhibitory activity on MBL NDM-5 (IC50 class).
Where [24] appears, read: read-out: inhibitory activity at a nanomolar-level on NDM-1.
[25] abbreviates: VIM-1 and/or VIM-2, read-out: inhibitory activity at a nanomolar-level on VIM-1 and/or VIM-2.
[26] abbreviates: read-out: inhibitory activity at a nanomolar-level on NDM-5.

Like-named read-outs stand apart in the source and are kept apart here.

Chain of NDM-1 (C7C422 29-270 limits assumed): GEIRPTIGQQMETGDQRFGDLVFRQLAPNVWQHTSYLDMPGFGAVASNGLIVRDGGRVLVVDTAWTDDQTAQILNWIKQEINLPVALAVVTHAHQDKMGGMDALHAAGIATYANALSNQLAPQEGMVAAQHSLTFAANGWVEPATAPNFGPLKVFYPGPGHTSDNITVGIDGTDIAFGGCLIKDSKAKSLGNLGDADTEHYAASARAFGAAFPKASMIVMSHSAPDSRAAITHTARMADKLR
Chain of KPC-2 (Q9F663 25-293 limits assumed): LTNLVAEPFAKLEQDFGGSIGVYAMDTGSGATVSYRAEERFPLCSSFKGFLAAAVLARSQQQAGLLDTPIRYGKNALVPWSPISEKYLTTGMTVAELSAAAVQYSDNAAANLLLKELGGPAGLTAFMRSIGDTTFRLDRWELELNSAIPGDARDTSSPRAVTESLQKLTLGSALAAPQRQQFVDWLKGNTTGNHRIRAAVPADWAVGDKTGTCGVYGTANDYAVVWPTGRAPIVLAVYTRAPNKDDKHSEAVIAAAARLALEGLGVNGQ
Chain of CTX-M-14 (Q9L5C7 entry or part of it): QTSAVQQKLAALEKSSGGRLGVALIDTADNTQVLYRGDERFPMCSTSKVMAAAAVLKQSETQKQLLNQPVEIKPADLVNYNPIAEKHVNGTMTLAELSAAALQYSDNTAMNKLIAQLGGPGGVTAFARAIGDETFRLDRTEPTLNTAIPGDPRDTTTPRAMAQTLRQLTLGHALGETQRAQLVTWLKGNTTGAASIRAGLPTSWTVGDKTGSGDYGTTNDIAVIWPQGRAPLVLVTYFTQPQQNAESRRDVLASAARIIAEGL
Chain of NDM-5 (C7C422 29-270 V88L/M154L): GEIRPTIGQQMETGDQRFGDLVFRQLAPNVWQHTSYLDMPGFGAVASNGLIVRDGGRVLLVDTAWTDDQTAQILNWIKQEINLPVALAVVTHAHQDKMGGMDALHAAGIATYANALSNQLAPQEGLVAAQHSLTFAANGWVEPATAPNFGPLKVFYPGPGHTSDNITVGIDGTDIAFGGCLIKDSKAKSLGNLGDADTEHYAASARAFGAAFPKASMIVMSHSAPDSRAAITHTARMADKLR
Chain of IMP-1 (P52699 19-246 limits assumed): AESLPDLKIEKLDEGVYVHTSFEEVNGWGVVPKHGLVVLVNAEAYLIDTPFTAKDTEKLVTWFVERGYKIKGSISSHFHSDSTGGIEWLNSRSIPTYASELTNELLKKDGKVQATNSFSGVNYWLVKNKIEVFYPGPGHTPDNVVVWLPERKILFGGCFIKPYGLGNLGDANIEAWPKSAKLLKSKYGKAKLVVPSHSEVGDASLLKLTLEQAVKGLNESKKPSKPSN
Chain of TEM-1 (P62593 24-286 limits assumed): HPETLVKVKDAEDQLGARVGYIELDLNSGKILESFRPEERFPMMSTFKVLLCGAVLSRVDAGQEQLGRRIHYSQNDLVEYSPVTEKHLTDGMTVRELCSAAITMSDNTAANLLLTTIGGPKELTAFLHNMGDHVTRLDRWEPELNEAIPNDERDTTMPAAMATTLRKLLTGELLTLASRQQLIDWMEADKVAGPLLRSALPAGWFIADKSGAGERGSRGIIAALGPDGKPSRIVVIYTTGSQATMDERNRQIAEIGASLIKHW
Chain of OXA-48 (Q6XEC0 23-265 limits assumed): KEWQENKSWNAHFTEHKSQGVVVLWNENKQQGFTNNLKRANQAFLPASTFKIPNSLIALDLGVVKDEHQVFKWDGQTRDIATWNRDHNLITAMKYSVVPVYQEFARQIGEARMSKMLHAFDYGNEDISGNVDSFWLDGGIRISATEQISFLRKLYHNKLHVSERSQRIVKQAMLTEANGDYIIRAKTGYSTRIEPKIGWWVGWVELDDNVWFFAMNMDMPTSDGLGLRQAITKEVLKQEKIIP

Turning to `O=C(O)c1c(CNc2nncs2)ccc2c1OB(O)CC2` [Comparative example 1 compound 64, reference compound], the IC50 in [1] is 3230 nM; in [1] (setting [14]) it was 1000 to 100000 nM; in assay [2] (setting [15]), 1000 to 100000 nM; in assay [2] (unit inferred, read-out: VIM-2, number in parentheses under the class symbol), 8100 nM; in [3] (setting [16]), > 100000 nM; in assay [3] (unit inferred, read-out: IMP-1, number in parentheses under the class symbol), 103000 nM. Moreover, the IC50 in [4] (read-out: AmpC, number in parentheses under the class symbol, unit inferred) is 7500 nM; in assay [4] (setting [17]), 1000 to 100000 nM; in assay [5] (setting [18]), 10 to 1000 nM; in [5] (unit inferred, read-out: OXA-48, number in parentheses under the class symbol), 154 nM; in assay [6] (setting [19]), 10 to 1000 nM; in assay [6] (unit inferred, read-out: KPC-2, number in parentheses under the class symbol), 65 nM. Moreover, the IC50 in [7] (setting [20]) was 10 to 1000 nM; in assay [7] (unit inferred, read-out: CTX-M-14, number in parentheses under the class symbol) it was 63 nM; in assay [8] (setting [21]), 1000 to 100000 nM; in [8] (unit inferred, read-out: VIM-1, number in parentheses under the class symbol) it was 5500 nM; in [9] (setting [22]), 1000 to 100000 nM; in [9] (unit inferred, read-out: SHV-12, number in parentheses under the class symbol) it was 1580 nM. Also, the IC50 in [10] (setting [23]) was 1000 to 100000 nM; in [10] (unit inferred, read-out: NDM-5, number in parentheses under the class symbol) it was 3230 nM.

Regarding `NC(=O)N1Cc2cn(Cc3ccc4c(c3C(=O)O)OB(O)CC4)nc2C1` [Compound 73], the IC50 was 10 to 1000 nM in [1] (setting [14]); < 1000 nM in assay [1] (setting [24]); 10 to 1000 nM in assay [2] (setting [15]); 10 to 1000 nM in assay [3] (setting [16]); 10 to 1000 nM in assay [4] (setting [17]); 10 to 1000 nM in assay [5] (setting [18]). The IC50 is < 10 nM in assay [6] (setting [19]); < 10 nM in assay [11]; 10 to 1000 nM in assay [7] (setting [20]); < 1000 nM in assay [8] (setting [25]); 10 to 1000 nM in assay [8] (setting [21]); < 10 nM in assay [9] (setting [22]). For the same molecule, the IC50 in assay [10] (setting [23]) is 10 to 1000 nM; in assay [10] (setting [26]), < 1000 nM. For the same molecule, the “inhibitory activity on OXA-48 compared to avibactam” value in [5] was “better or comparable”. In [6], the “inhibitory activity on KPC-2 compared to avibactam” value is reported as “better or comparable”. In addition, the “inhibitory activity on TEM-1 compared to avibactam” value in assay [11] is “better or comparable”. In assay [7], the “inhibitory activity on CTX-M-14 compared to avibactam” value is “better or comparable”. In addition, the “inhibitory activity on SHV-12 compared to control drugs” value in assay [9] was “comparable to avibactam and tazobactam and superior to taniborbactam”.

Regarding `CN1Cc2cn(Cc3ccc4c(c3C(=O)O)OB(O)CC4)nc2C1` [Compound 74], the IC50 in assay [1] (setting [14]) was 10 to 1000 nM; in assay [1] (setting [24]), < 1000 nM; in [2] (setting [15]), 10 to 1000 nM; in assay [3] (setting [16]) it was 10 to 1000 nM; in assay [4] (setting [17]), 10 to 1000 nM; in [5] (setting [18]), 10 to 1000 nM. Further, the IC50 is < 10 nM in assay [6] (setting [19]); < 10 nM in assay [11]; 10 to 1000 nM in [7] (setting [20]); < 1000 nM in assay [8] (setting [25]); 10 to 1000 nM in assay [8] (setting [21]); < 10 nM in [9] (setting [22]). The figures for the IC50 in assay [10] (setting [23]) and in assay [10] (setting [26]) were 10 to 1000 nM and < 1000 nM, respectively. Besides, in [5], the “inhibitory activity on OXA-48 compared to avibactam” value was “better or comparable”. For the same molecule, the “inhibitory activity on KPC-2 compared to avibactam” value in [6] was “better or comparable”. Further, the “inhibitory activity on TEM-1 compared to avibactam” value in [11] is on record as “better or comparable”. Further, in assay [7], the “inhibitory activity on CTX-M-14 compared to avibactam” value was “better or comparable”. In addition, the “inhibitory activity on SHV-12 compared to control drugs” value in assay [9] was “comparable to avibactam and tazobactam and superior to taniborbactam”.

In the case of `NCCN[C@H]1CC[C@H](CC(=O)N[C@H]2Cc3cccc(C(=O)O)c3OB2O)CC1` [Taniborbactam, reference compound], the IC50 in [2] (setting [15]) is < 10 nM; in [3] (setting [16]), 1000 to 100000 nM; in assay [5] (setting [18]), 10 to 1000 nM; in assay [6] (setting [19]), 10 to 1000 nM; in [7] (setting [20]) it was 10 to 1000 nM; in [8] (setting [21]), 10 to 1000 nM. Besides, the “MIC value of compounds in combination with meropenem, EC1541 (blaIMP-1)” value in assay [12] is “++++ (++++ indicates MIC < 4 μg/ml)”. In addition, the “MIC value of compounds in combination with meropenem, KP090344 (blaKPC-2)” value in assay [13] (clinical isolate KP090344 (blaKPC-2)) is “++++ (++++ indicates MIC < 4 μg/ml)”. Moreover, the “MIC value of compounds in combination with meropenem, KP140508 (blaKPC-2)” value in [13] (clinical isolate KP140508 (blaKPC-2)) is reported as “++++ (++++ indicates MIC < 4 μg/ml)”. Further, the “MIC value of compounds in combination with meropenem, KP140912 (blaKPC-2)” value in assay [13] (clinical isolate KP140912 (blaKPC-2)) is recorded as “++++ (++++ indicates MIC < 4 μg/ml)”.

(Values after patent US20250205259A1, “CLASS OF 7-((FIVE-MEMBERED HETEROCYCLIC)METHYL)-8-CARBOXYLIC ACID-BENZO CYCLIC BORATE DERIVATIVES AND USES THEREOF” (priority 2022, published 2025).)
